Test results taken from US20080004345A1, “Novel Water-Soluble Fullerene, Process for Producing the Same and Active Oxygen Generator Containing the Fullerene” (priority 2004, published 2008).

Tests used:
[1] = system: mouse colon cancer Colon26; experiment: In vivo anticancer activity by light irradiation in cancer bearing mice
Protocol: Administration routes were changed and anticancer activity in vivo by light irradiation was compared. Cancer bearing mice were prepared by removing a tumor block which had been passaged from mouse colon cancer Colon26 cells (provided by Cancer Chemotherapy Center of Cancer Research Society) by subcutaneous transplantation of BALB/c-nn (female, Charles River-Laboratories Japan, Inc.) and transplanting a strip piece onto the back subcutis of CDF1 mouse (female, Charles River Laboratories Japan, Inc.). The cancer bearing mice were used in the experiment in five days after transplantation in which cancer having a diameter of around 5 mm was formed in subcutis. […]
Cancer bearing mice to which water-soluble fullerene was not administered and which were not irradiated with light were used as a control group and the size of the tumor of the subcutaneous region was measured for each mouse with time. The cancer size was measured by actually measuring the major axis and the minor axis of the cancer with a slide caliper and calculated using a calculation formula reported by Winn (Natl. Cancer Inst Monogr., Vol. 2, p 113-138 (1960)).

[2] = Particle size measurement by light scattering method; type: physicochemical; settings: in distilled water, 1 mg/mL and 100 μg/mL
Protocol: Particle size measurement by light scattering method was performed on the water-soluble fullerene of the present invention. The water-soluble fullerene which was synthesized with Example 1 was dissolved in distilled water so that the final concentration might be 1 mg/mL and 100 μg/mL. This solution was measured with light scattering measuring apparatus DLS-7000 (Otsuka Electronics Co., Ltd.).

[3] = Molecular weight of aggregate by high performance liquid chromatography (TSKgel G3000PWXL); type: physicochemical; settings: HPLC, 50 mM phosphate buffer pH 6.9 with 0.3 M sodium chloride (20% acetonitrile for Example 1), PEG molecular weight markers
Protocol: Measurement of molecular weight of a fraction obtained by extracting the reaction liquid with equivalent amount of distilled water in Example 1 and a fraction after passing the aqueous layer through the cation exchange resin column was carried out using high performance liquid chromatography system 8020 (Tosoh Co., Ltd.) with TSKgel G3000PWXL (Tosoh Co., Ltd.). 50 mM phosphate buffer (pH 6.9) containing 20% acetonitrile and 0.3 M sodium chloride was used as mobile phase with a flow rate of mobile phase of 0.5 mL/min and the detection was performed at ultra-violet absorption of fullerene. Polyethylene glycols having known molecular weight (molecular weight 94,000 and 5,000) were used as molecular weight markers and the retention time was shown in FIG. 1.
As a comparative control, PEG having a methyl group at one end and an aminopropyl group at the other end and having a molecular weight 5000 was used, and the measurement of molecular weight of a fullerene-water-soluble polymer conjugate synthesized in a molar ratio of 1:10 following a method described in Example 1 of JP-A-09-235235 was carried out. 50 mM phosphate buffer (pH 6.9) containing 0.3 M sodium chloride was used as mobile phase with a flow rate of mobile phase of 1 mL/min and the detection was performed at ultra-violet absorption of fullerene. […]

[4] = Amount of active oxygen generated by ultrasonic irradiation, viable count measurement reagent SF; settings: 200 μM solution, 1 MHz, duty cycle 30%, five minutes, output 1.5, 2.0, 2.5 and 3.0 W/cm^2
Protocol: The amount of active oxygen (superoxide anion, O2^−) generated by ultrasonic irradiation was measured using viable count measurement reagent SF with reference to a report by Ukeda (DOJIN NEWS, No. 96, p 1-6, 2000). A solution in which water-soluble fullerene of Example 2 was dissolved in a Hanks' balanced salt solution so that it might be 200 μM was dispensed to 35 mm dish by 750 μL. This was mixed with 600 μL of a Hanks' balanced salt solution and 150 μL of viable count measurement reagent SF and, while stirred, irradiated with ultrasonic waves of various output (1.5, 2.0, 2.5 and 3.0 W/cm^2) with a frequency of 1 MHz, output mode (Duty cycle) 30% for five minutes from the liquid surface using an sonodynamic therapy device US-700 (Ito Ultrashort Wave Company). After irradiation, absorbance of the solution at 450 nm was measured with a spectrophotometer DU-650. The absorbance of the solution irradiated with ultrasonic wave without adding a compound at 450 nm was assumed as control and the amount of generated O2 per minute was shown in FIG. 7.

[5] = Amount of active oxygen generated by light irradiation, cytochrome method; settings: 200 μM solution mixed with cytochrome c in HBSS, light 220-800 nm, 30° C., 20 minutes
Protocol: The amount of generated active oxygen (superoxide anion, O2^−) was measured by cytochrome method. 200 μL of a solution in which cytochrome c (Nacalai Tesque Corporation) was dissolved in a Hanks' balanced salt solution (HBSS, pH 7.4, Lifetech Oriental Company) so that the final concentration might be 50 μM and 200 μL of a solution in which fullerene linked to one molecule of PEG (molecular weight 12000) prepared in Example 2 was dissolved in HBSS so that the final concentration might be 200 μM were mixed. This mixed solution was irradiated with light of various wavelengths (220-800 nm) with spectrophotofluorometer F-2000 (Hitachi, Ltd.) at 30° C. for 20 minutes. After irradiation, absorbance of the solution at 550 nm was measured with spectrophotometer DU-650 (Beckmann Company). The amount of generated O2— per minute was shown in FIG. 4 assuming a solution under light shielding condition at 30° C. for 20 minutes as control.

[6] = system: RLmale 1 cells; experiment: In vitro cancer cell growth inhibitory activity by light irradiation; type: cell-based; settings: 62.5-250 μM solutions, light irradiated for 40 minutes, cultured three days
Protocol: Cancer cell growth inhibitory activity in in vitro by light irradiation was measured. RLmale 1 cells (provided by Kyoto Pasteur Laboratory) were used as a cancer cell and these cells were incubated under culture conditions of 5% CO2, 95% atmosphere, at 37° C. in RPMI 1640 culture medium (Sigma Company, containing 10% fetal bovine serum) with 100 mm dish till they became 80% confluent. The water-soluble fullerene of Example 2 was dissolved in a culture medium of the same composition as used for culture of cancer cells under light shielding condition and after adjusted to the concentration of 250 μM, it was sterilized and filtered. The sterilized solution of 250 μM was diluted with a culture medium sequentially to prepare solutions of 125 μM and 62.5 μM. […] After the culturing for three days, 10 μL each of viable count measurement reagent SF (Nacalai Tesque Corporation) was added into each well, and after kept warm in an incubator for 80 minutes, absorbance at 450 nm was measured with a microplate leader VERSAmax (Japanese Molecular Device Company). The survival rate of cancer cells was determined assuming that the absorbance at 450 nm for the case in which compound of Example 2 was not added was 100% survival rate and the results are shown in FIG. 5.

Substance | increase of tumor volume ([1]; Colon26 bearing CDF1 mice, administration combined with light irradiation of tumor site, three consecutive days) | order of tumor suppression effect by administration route ([1]; subcutaneous or intra-tumor 6 mg/mL 100 μL, light 5 minutes after, intravenous 60 mg/mL 100 μL, light 24 hours after) | particle diameter of aggregate [2] | molecular weight of aggregate formed by self assembly [3] | amount of active oxygen on ultrasonic irradiation [4] | generation of O2− on light irradiation [5] | wavelength range of particularly significant O2− generation [5] [nm] | survival rate of cancer cells [6]
Fullerene Linked to One Molecule of PEG (Molecular Weight 5000) [Example 1] | Increase of a tumor volume was suppressed | subcutaneous administration<intra-tumor administration<intravenous administration | about 50 nm | about 100,000 | – | – | – | –
Fullerene Linked to One Molecule of PEG (Molecular Weight 12000) [Example 2] | – | – | about 100 nm | – | the amount of active oxygen increases according to the output increases | generation of O2— was observed in a wide wavelength range from ultraviolet to visible light areas | 260 to 450 | significantly decreases the survival rate of cancer cells as the addition amount thereof increases
